Results published in patent publication US20230045245A1, “HETEROCYCLIC COMPOUND OR SALT THEREOF, ACTIVE MATERIAL, ELECTROLYTIC SOLUTION AND REDOX FLOW BATTERY” (NIPPON KAYAKU KABUSHIKI KAISHA, priority 2020, published 2023).
Like-named read-outs stand apart in the source and are kept apart here.

What was measured:
[1] = Solubility to water calculated from UV-visible absorbance; details: for Solubility (%): saturated solution in water, diluted with standard buffer pH 6.86 (25° C.), absorbance at maximum absorption wavelength 300-550 nm, calibration curve
[2] = pH 6.86
[3] = solubility to water, calculated from solubility (%), density of the solution assumed to be 1.0 g/cm^3
[4] = water, thermodynamic from solid

| Solubility (%) [1] [%] | solubility [1, 4] [mM] | Compound | solubility [1, 3] [mM] | Solubility (%) [2] [%] |
| --- | --- | --- | --- | --- |
| 17.7 | 200 | O=C([O-])COc1cc2c(c(OCC(=O)[O-])c1OCC(=O)[O-])C(=O)c1cc(OCC(=O)[O-])c(OCC(=O)[O-])c(OCC(=O)[O-])c1C2=O.[K+].[K+].[K+].[K+].[K+].[K+] [formula (3-2)] | – | – |
| 41.8 | 500 | O=C1c2cc(OCCOCCOCCO)c(O)c(OCCOCCOCCO)c2C(=O)c2cc(OCCOCCOCCO)c(O)c(OCCOCCOCCO)c21 [formula (3-5)] | – | – |
| 35.3 | 510 | O=C1c2ccccc2C(=O)c2c1cc(OCCCS(=O)(=O)[O-])c(OCCCS(=O)(=O)[O-])c2OCCCS(=O)(=O)[O-].[Na+].[Na+].[Na+] [formula (3-3)] | – | – |

Further lines, the molecule ahead of its results:

| Compound | Solubility (%) [1] [%] | solubility [1, 4] [mM] | solubility [1, 3] [mM] | Solubility (%) [2] [%] |
| --- | --- | --- | --- | --- |
| O=C1c2cccc(S(=O)(=O)[O-])c2C(=O)c2c1cccc2S(=O)(=O)[O-].[K+].[K+] [9,10-anthraquinone-1,8-disulfonic acid (K), reference compound] | 0.2 | – | 4 | – |
| O=C1c2cccc(S(=O)(=O)[O-])c2C(=O)c2cccc(S(=O)(=O)[O-])c21.[Na+].[Na+] [9,10-anthraquinone-1,5-disulfonic acid (Na), reference compound] | 2.7 | – | 70 | – |
| O=C1C(SCCCS(=O)(=O)[O-])=C(SCCCS(=O)(=O)[O-])C(=O)c2ccccc21.[K+].[K+] [formula (2-1)] | 36.6 | 670 | – | – |
| O=C1c2ccccc2C(=O)c2cc(S(=O)(=O)[O-])ccc21.[Na+] [9,10-anthraquinone-2-sulfonic acid (Na)] | – | – | – | 0.7 |
